Data reported in US20190241569A1, “3-(ARYL OR HETEROARYL) METHYLENEINDOLIN-2-ONE DERIVATIVES AS INHIBITORS OF CANCER STEM CELL PATHWAY KINASES FOR THE TREATMENT OF CANCER” (Boston Biomedical, Inc., priority 2013, published 2019).
Read-outs that look alike come from different tables or passages of the source.

Assays:
FaDu CSC = assay: Cancer stem cells, Cell Titer-Glo 72 hours (Test Example 3); type: cell-based; conditions: Homo sapiens, FaDu, 72 h
p-RPS6 Ser235/236 = assay: Kinase inhibition, Western blot in HeLa cells (Test Example 5); type: cell-based; conditions: Homo sapiens, 6 hours, DMSO = 100, read-out: p-RPS6 Ser235/236 Relative Intensity (%)
Experimental: (§1) HeLa cells were treated with 5 uM of the indicated compound for 6 hours. Following compound incubation, cells were washed twice with ice-cold PBS and lysed in lysis buffer (50 mM HEPES, pH 7.5, 1% Nonidet P40, 150 mM NaCl, 1 mM EDTA, 1× protease inhibitor cocktail (Promega)). 30 micrograms of soluble protein was separated by SDS-PAGE and transferred to PVDF membranes. Primary antibodies against p-AMPK Thr172, p-RPS6 Ser235/236, p-RPS6 Ser240/244, and Tubulin (Cell Signaling Technology) were used. The antigen-antibody complexes were visualized by enhanced chemiluminescence (BioRad). The results are shown below in Tables 17A-17E.

p-AMPK Thr172 = assay: as above; type: cell-based; conditions: Homo sapiens, 6 hours, DMSO = 100, read-out: p-AMPK Relative Intensity (%)
Experimental: as §1

p-RPS6 Ser240/244 = assay: as above; type: cell-based; conditions: Homo sapiens, 6 hours, DMSO = 100, read-out: p-RPS6 Ser240/244 Relative Intensity (%)
Experimental: as §1

A549 = assay: Bulk cancer cells, Cell Titer-Glo 72 hours (Test Example 2); type: cell-based; conditions: Homo sapiens
Experimental: (§2) Tubes of 3× drug (60 uM in 500 uL complete media) were prepared from 5 mM stock solutions in DMSO. […] To treat cells, 50 uL of drug from the dilution plate was removed and added to the cell plates. […] Cells were harvested 72 hours after drug addition using Cell Titer-Glo (Promega) and luminescence measured on a plate reader.

ACHN = assay: as above; type: cell-based; conditions: Homo sapiens, ACHN, 72 h
Experimental: as §2

FaDu = assay: as above; type: cell-based; conditions: Homo sapiens
Experimental: as §2

ACHN CSC = assay: Cancer stem cells, Cell Titer-Glo 72 hours (Test Example 3); type: cell-based; conditions: Homo sapiens, ACHN, 72 h
A549 CSC = assay: as above; type: cell-based; conditions: Homo sapiens
human RIOK2 protein = target: T1, human RIOK2 protein (Homo sapiens, UniProt Q9BVS4); assay: RIOK2 autophosphorylation ELISA (Test Example 4); type: biochemical; conditions: for inhibition at 1 µM: read-out: Inhibitory activity at 1 μM (%); for inhibition at 10 µM: read-out: Inhibitory activity at 10 μM (%)
T1 construct: glutathione S-transferase is fused to N-terminal of a full-length human RIOK2 protein; GST (glutathione S-transferase) (N); purchased CarnaBio, Inc; host or cells: baculovirus-Sf21 cell expression system
Experimental: A protein in which glutathione S-transferase is fused to N-terminal of a full-length human RIOK2 protein was used as a recombinant human RIOK2 protein. The protein was prepared using a baculovirus-Sf21 cell expression system from CarnaBio, Inc. A kinase reaction solution was prepared by mixing 25 μg/mL of the recombinant human RIOK2 protein and 100 μM of ATP in 20 μl of kinase reaction buffer (50 mM Tris-HCl, 10 mM MgCl2, 10 mM MnCl2, 1 mM DTT, 0.01% Brij, 1× PhosSTOP (manufactured by Roche Applied Science)), and was incubated at a temperature of 30° C. for 1 hour. After adding 30 μl of 40 mM EDTA solution to this kinase reaction solution, the kinase reaction solution was transferred to a MaxiSorp 96 well plate (manufactured by Nunc). Thereafter, phosphorylated human RIOK2 protein was allowed to adsorb onto the wells by leaving the plate in a refrigerator overnight.
The following day, the supernatant was removed, and the wells were washed three times with ELISA buffer (20 mM Tris-HCl, 150 mM NaCl, 0.2% Tween-20, 0.1% BSA). Thereafter, 100 μl of Blocking-One P (product name; manufactured by Nacalai Tesque, Inc.) was applied to the wells, and a blocking treatment was performed for 1 hour at room temperature. […] After further washing the wells, a secondary antibody, anti-rabbit IgG conjugated with horseradish peroxidase (manufactured by Jackson ImmunoResearch; 1/4000 ELISA buffer-diluted solution), was applied to the wells, and incubation was performed for 30 minutes at room temperature. After washing the wells once again, 50 μl of tetramethyl benzidine (TMB) aqueous solution (manufactured by Nacalai Tesque, Inc.) was applied to the wells, and a coloring reaction was performed for 30 minutes at room temperature. Thereafter, the coloring reaction was stopped by adding 50 μl of 2M H2SO4 to the wells. An absorptiometric level of 450 nm was measured in each well using ARVO SX (manufactured by Wallac).

T1 sequence (Q9BVS4 whole entry, the tested form may be a part): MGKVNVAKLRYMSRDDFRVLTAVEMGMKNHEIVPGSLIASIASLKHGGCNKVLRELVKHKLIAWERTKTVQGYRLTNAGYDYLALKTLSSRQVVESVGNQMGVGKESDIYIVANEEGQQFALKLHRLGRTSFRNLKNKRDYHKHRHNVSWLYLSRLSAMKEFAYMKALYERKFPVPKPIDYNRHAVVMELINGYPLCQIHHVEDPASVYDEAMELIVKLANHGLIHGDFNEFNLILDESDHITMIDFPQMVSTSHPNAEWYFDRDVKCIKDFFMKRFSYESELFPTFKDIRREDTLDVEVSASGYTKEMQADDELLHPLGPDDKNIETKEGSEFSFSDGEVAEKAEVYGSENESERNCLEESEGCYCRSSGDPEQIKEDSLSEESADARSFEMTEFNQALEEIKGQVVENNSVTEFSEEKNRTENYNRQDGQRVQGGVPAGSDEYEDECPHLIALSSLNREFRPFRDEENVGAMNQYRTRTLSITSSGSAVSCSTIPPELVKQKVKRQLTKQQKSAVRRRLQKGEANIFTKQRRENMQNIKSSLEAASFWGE

| IC50 (FaDu CSC) | IC50 (A549) | IC50 (ACHN) | IC50 (FaDu) | IC50 (ACHN CSC) | IC50 (A549 CSC) | inhibition at 1 µM (human RIOK2 protein) | inhibition at 10 µM (human RIOK2 protein) | Structure (SMILES) | activity at 5 µM (p-RPS6 Ser235/236; 5 uM) | activity at 5 µM (p-AMPK Thr172; 5 uM) | activity at 5 µM (p-RPS6 Ser240/244; 5 uM) | activity at 5 µM (p-RPS6 Ser235/236; 5 uM compound, Western blot) | activity at 5 µM (p-AMPK Thr172; 5 uM compound, Western blot) | activity at 5 µM (p-RPS6 Ser240/244; 5 uM compound, Western blot) |
| --- | --- | --- | --- | --- | --- | --- | --- | --- | --- | --- | --- | --- | --- | --- |
| 41.9 µM |  |  |  |  |  |  |  | Cc1[nH]c(/C=C2\C(=O)Nc3cc(-c4csc(-c5ccccc5)n4)ccc32)c(C)c1C(=O)N1CCOCC1 [Example 36] | 4% | 118% | 44% |  |  |  |
| 8.09 µM | 7.49 µM | 2.97 µM | 3.55 µM | 1.65 µM |  |  |  | CCN(CC)CCNC(=O)c1c(C)[nH]c(/C=C2\C(=O)Nc3cc(-c4oc(-c5ccccc5)nc4C)ccc32)c1C [Example 37] | 4% | 151% | 43% |  |  |  |
|  | 16.6 µM | 20.4 µM | 16.4 µM | 18.9 µM | 20.2 µM |  |  | Cc1cc(C)c(/C=C2\C(=O)Nc3cccc(-c4ccc5cc[nH]c5c4)c32)[nH]1 [Example 273] |  |  |  | 36% | 27% | 35% |
|  | 16.3 µM | 16.8 µM | 39.7 µM |  |  |  |  | Cc1cc(C)c(/C=C2\C(=O)Nc3cccc(-c4cncnc4)c32)[nH]1 [Example 278] |  |  |  | 44% | 198% | 43% |
| 2.57 µM | 16 µM | 10.4 µM | 4.22 µM |  |  | 32% | 68% | CCN(CC)CCNC(=O)c1c(C)[nH]c(/C=C2\C(=O)Nc3ccc(-c4cnn(C5CCOCC5)c4)cc32)c1C [Example 47] |  |  |  |  |  |  |
| 0.23 µM | 48.9 µM |  | 14.1 µM |  |  |  | 19% | Cc1[nH]c(/C=C2\C(=O)Nc3ccc(-c4nnc(-c5ccccc5)s4)cc32)c(C)c1C(=O)N1CCN(C)CC1 [Example 2] |  |  |  |  |  |  |
| 0.22 µM | 0.7 µM | 0.52 µM | 0.69 µM |  | 2.48 µM |  |  | COC(=O)c1c(C)[nH]c(/C=C2\C(=O)Nc3ccc(-c4csc(C5CCNCC5)n4)cc32)c1C [Example 144] | 70% | 79% | 83% |  |  |  |
|  | 21.1 µM | 28.1 µM | 35.3 µM |  |  |  |  | COc1ncc(-c2cccc3c2/C(=C/c2[nH]c(C)cc2C)C(=O)N3)cn1 [Example 277] |  |  |  | 77% | 145% | 75% |
|  | 24.4 µM | 28.3 µM | 28.4 µM |  | 43.4 µM |  |  | COc1ccc(-c2cccc3c2NC(=O)/C3=C\c2[nH]c(C)cc2C)cn1 [Example 274] |  |  |  | 63% | 91% | 59% |
|  |  |  | 22.6 µM |  |  |  |  | COc1ncccc1-c1cccc2c1/C(=C/c1[nH]c(C)cc1C)C(=O)N2 [Example 271] |  |  |  | 67% | 105% | 67% |
|  | 23.5 µM |  |  |  |  |  |  | Cc1cc(C)c(/C=C2\C(=O)Nc3c2cccc3-c2ccncc2)[nH]1 [Example 281] |  |  |  | 68% | 83% | 65% |
| 0.27 µM | 4.74 µM | 1.64 µM | 1.18 µM |  | 4.28 µM |  |  | CCN(CC)CCNC(=O)c1c(C)[nH]c(/C=C2\C(=O)Nc3ccc(-c4nc(-c5ccccc5)cs4)cc32)c1C [Example 51, (Z)-N-(2-(diethylamino)ethyl)-2,4-dimethyl-5-((2-oxo-5-(4-phenylthiazol-2-yl)indolin-3-ylidene)methyl)-1H-pyrrole-3-carboxamide] | 21% | 12% | 64% |  |  |  |
|  |  |  |  |  |  |  |  | Cc1[nH]c(/C=C2\C(=O)Nc3cc(-c4ccc(-c5ccccc5)s4)ccc32)c(C)c1C(=O)N1CCN(C)CC1 [Example 29] | 36% | 108% | 68% |  |  |  |
| 27.6 µM |  |  | 7.35 µM |  | 0.35 µM | 32% | 56% | CCN(CC)CCNC(=O)c1c(C)[nH]c(/C=C2\C(=O)Nc3ccc(-c4ncc(-c5ccccc5)o4)cc32)c1C [Example 19] |  |  |  |  |  |  |
| 0.05 µM | 1.72 µM | 1.24 µM | 0.51 µM | 0.13 µM | 2.53 µM | 36% | 86% | CCN(CC)CCNC(=O)c1c(C)[nH]c(/C=C2\C(=O)Nc3ccc(-c4cnn(-c5ccccn5)c4)cc32)c1C [Example 32] |  |  |  |  |  |  |
|  | 19.7 µM | 21 µM | 25.8 µM |  |  |  |  | Cc1cc(C)c(/C=C2\C(=O)Nc3c2cccc3-c2cncc3ccccc23)[nH]1 [Example 279] |  |  |  | 86% | 108% | 83% |
| 3.46 µM | 2.94 µM | 6.57 µM | 3.01 µM | 1.17 µM | 5.54 µM | 55% | 100% | CCN(CC)CCNC(=O)c1c(C)[nH]c(/C=C2\C(=O)Nc3ccc(-c4ccnn4-c4ccccc4)cc32)c1C [Example 22] |  |  |  |  |  |  |
| 1.6 µM |  |  |  | 0.5 µM |  |  |  | Cc1nc(-c2ccccc2)oc1-c1ccc2c(c1)NC(=O)/C2=C\c1[nH]c(C)c(C(=O)N2CCN(C)CC2)c1C [Example 38] | 2% | 103% | 21% |  |  |  |
| 0.83 µM |  |  | 2.51 µM |  |  |  |  | CCN(CC)CCNC(=O)c1c(C)[nH]c(/C=C2\C(=O)Nc3ccc(-c4ccc(-c5cccs5)s4)cc32)c1C [Example 27] | 5% | 21% | 41% |  |  |  |
| 30.5 µM |  |  |  |  |  |  |  | CCN(CC)CCNC(=O)c1c(C)[nH]c(/C=C2\C(=O)Nc3cc(-c4ccc(-c5ccccc5)s4)ccc32)c1C [Example 15] | 5% | 150% | 56% |  |  |  |
| 0.6 µM | 5.35 µM | 2.28 µM | 6.25 µM |  | 4.83 µM | 45% | 94% | CCN(CC)CCNC(=O)c1c(C)[nH]c(/C=C2\C(=O)Nc3ccc(-c4cnn(-c5ccccc5)c4)cc32)c1C [Example 4] |  |  |  |  |  |  |
|  | 25.2 µM | 26.9 µM | 28.1 µM |  |  |  |  | Cc1cc(C)c(/C=C2\C(=O)Nc3c2cccc3-c2cncnc2)[nH]1 [Example 276] |  |  |  | 51% | 113% | 50% |

| Structure (SMILES) | IC50 (FaDu CSC) | IC50 (A549) | IC50 (ACHN) | IC50 (FaDu) | IC50 (ACHN CSC) | IC50 (A549 CSC) | inhibition at 1 µM (human RIOK2 protein) | inhibition at 10 µM (human RIOK2 protein) | activity at 5 µM (p-RPS6 Ser235/236; 5 uM) | activity at 5 µM (p-AMPK Thr172; 5 uM) | activity at 5 µM (p-RPS6 Ser240/244; 5 uM) | activity at 5 µM (p-RPS6 Ser235/236; 5 uM compound, Western blot) | activity at 5 µM (p-AMPK Thr172; 5 uM compound, Western blot) | activity at 5 µM (p-RPS6 Ser240/244; 5 uM compound, Western blot) |
| --- | --- | --- | --- | --- | --- | --- | --- | --- | --- | --- | --- | --- | --- | --- |
| Cc1[nH]c(/C=C2\C(=O)Nc3cccc(-c4ccc(-c5ccccc5)cc4)c32)c(C)c1C(=O)N1CCN(C)CC1 [Example 110] | 1.21 µM | 21.5 µM | 14.9 µM | 7.56 µM |  | 5.76 µM |  |  | 2% | 105% | 36% |  |  |  |
